Where two headings read alike, the source gives them in different places.
Columns and labels:
CYP isoforms = test: Time-dependent CYP inhibition (overall statement); type: in vitro ADME, human
CYP2C19 = CYP2C19 (Homo sapiens, UniProt P33261); test: Direct and time-dependent CYP inhibition, pooled human liver microsomes; type: in vitro ADME; design: from tissue; host or cells: pooled human liver microsomes (n=200 donors)
Method: (§1) “mM^”=millimolar. CYP induction was evaluated using cultured human hepatocytes (from 3 donors) treated once daily for 3 days with RE/R concentrations to […].
(§2) The competitive inhibition of specific CYP isoforms was investigated for RVT-1201 and KAR5417 in human liver microsomes (HLM) (XT155056). Of the […] evaluated in vitro (CYP1A2, CYP2B6, CYP2C8, CYP2C9, CYP2D6, CYP3A4, CYP3A5), RVT-1201 IC50 estimates were determined for CYP2B6, CYP2C8 and CYP3A4 only. […] For each IC50 estimate, substrate concentration and Km were used to estimate RVT-1201 and KAR5417 Ki.

CYP2C8 = molecular target: T1, CYP2C8 (Homo sapiens, UniProt P10632); test: as above; type: in vitro ADME; design: from tissue; host or cells: pooled human liver microsomes (n=200 donors); conditions: for IC50: human liver microsomes, read-out: In vitro IC50, direct inhibition, CYP2C8; for Calculated R1 Value, CYP2C8: predicted @ 600 mg BID, R1=1+(Imax,unbound/Ki)
T1 sequence (P10632 1-490): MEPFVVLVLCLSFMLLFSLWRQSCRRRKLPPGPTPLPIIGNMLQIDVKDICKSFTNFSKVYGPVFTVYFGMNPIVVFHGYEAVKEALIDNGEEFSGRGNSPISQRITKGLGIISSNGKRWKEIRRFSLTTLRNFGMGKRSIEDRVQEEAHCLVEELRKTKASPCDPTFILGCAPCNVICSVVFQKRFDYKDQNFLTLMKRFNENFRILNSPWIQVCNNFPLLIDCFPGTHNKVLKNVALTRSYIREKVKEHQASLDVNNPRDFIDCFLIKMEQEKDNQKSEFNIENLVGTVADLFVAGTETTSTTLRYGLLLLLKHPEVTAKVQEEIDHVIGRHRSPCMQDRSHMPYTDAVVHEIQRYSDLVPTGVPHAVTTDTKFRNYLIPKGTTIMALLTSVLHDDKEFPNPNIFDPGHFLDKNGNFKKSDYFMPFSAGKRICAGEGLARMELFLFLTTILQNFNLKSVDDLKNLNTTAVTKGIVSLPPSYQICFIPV
Method: as §1, §2

CYP2B6 = molecular target: T2, CYP2B6 (Homo sapiens, UniProt P20813); test: as above; type: in vitro ADME; design: from tissue; host or cells: pooled human liver microsomes (n=200 donors); conditions: for IC50: human liver microsomes, read-out: In vitro IC50, direct inhibition, CYP2B6
T2 sequence (P20813 1-491): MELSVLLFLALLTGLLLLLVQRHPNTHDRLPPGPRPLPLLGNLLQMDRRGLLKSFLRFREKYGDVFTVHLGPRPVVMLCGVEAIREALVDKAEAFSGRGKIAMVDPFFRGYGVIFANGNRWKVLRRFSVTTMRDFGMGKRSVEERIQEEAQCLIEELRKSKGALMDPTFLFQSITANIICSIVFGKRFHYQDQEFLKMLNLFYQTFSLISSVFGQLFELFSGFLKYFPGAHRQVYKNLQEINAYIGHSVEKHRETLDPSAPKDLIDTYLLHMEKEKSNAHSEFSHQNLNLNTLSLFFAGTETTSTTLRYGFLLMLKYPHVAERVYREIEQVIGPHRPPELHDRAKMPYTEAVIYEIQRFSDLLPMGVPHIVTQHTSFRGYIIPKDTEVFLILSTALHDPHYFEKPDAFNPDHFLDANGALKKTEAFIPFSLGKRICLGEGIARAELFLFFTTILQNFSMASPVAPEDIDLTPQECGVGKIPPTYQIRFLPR
Method: as §1, §2

CYP2D6 = CYP2D6 (Homo sapiens, UniProt P10635); test: as above; type: in vitro ADME; design: from tissue; host or cells: pooled human liver microsomes (n=200 donors)
CYP2D6, sequence (P10635 whole entry): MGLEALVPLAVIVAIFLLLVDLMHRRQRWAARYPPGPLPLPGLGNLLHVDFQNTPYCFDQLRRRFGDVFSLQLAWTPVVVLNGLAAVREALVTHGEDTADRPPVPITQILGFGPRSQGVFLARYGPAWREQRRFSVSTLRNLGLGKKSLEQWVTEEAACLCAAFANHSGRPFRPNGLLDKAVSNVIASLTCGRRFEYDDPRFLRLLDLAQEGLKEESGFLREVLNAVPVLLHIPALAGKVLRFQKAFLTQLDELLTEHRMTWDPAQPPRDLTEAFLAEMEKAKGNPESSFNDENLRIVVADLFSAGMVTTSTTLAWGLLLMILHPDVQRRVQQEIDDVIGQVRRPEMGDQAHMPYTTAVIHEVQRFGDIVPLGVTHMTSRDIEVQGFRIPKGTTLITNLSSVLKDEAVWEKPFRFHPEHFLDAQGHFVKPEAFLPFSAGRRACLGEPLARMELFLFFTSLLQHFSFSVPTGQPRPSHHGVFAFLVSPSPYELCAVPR
Method: as §1, §2

CYP1A2 = molecular target: T3, CYP1A2 (Homo sapiens, UniProt P05177); test: as above; type: in vitro ADME; design: from tissue; host or cells: pooled human liver microsomes (n=200 donors)
T3 sequence (P05177 1-516): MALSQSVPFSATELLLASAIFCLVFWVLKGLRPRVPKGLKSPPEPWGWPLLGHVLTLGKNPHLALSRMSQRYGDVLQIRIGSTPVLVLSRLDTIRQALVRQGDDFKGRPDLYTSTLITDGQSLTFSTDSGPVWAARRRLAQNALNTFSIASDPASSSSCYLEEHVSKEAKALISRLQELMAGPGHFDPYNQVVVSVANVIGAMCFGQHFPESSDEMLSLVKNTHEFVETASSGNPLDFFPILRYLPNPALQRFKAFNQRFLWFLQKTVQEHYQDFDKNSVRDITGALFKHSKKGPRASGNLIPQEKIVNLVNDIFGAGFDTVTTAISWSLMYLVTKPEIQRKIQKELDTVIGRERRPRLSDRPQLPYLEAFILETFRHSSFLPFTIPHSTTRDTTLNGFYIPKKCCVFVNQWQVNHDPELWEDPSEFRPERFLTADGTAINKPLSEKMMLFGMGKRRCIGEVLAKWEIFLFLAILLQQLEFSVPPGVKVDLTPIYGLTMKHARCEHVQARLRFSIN
Method: as §1, §2

Plasma protein binding = type: in vitro ADME, human; conditions: for fraction unbound: human, plasma, read-out: Plasma protein binding (fraction bound) (converted)
From the text: This analysis is typically based on non-protein bound drug levels in plasma. Values for plasma protein binding (fraction bound) of rodatristat ethyl and rodatristat were 0.995 and 0.991, respectively.
Calculation of Cmax, u, portal uses plasma Cmax, fraction of an oral dose absorbed (Fa) and measured unbound fraction in blood. For rodatristat, experimentally derived values were used for Fa determined in a rat 14C study (20%) and in vitro binding to human plasma (99.1%) and blood:plasma distribution (RB, 0.72). Walsky et al proposed a threshold where the ratio of Cmax, u, portal/Ki of <0.1 is associated with low risk. […] In the rat, the RE:R is ˜3-fold higher in portal blood compared to the periphery.

CYP2C19, sequence (P33261 whole entry): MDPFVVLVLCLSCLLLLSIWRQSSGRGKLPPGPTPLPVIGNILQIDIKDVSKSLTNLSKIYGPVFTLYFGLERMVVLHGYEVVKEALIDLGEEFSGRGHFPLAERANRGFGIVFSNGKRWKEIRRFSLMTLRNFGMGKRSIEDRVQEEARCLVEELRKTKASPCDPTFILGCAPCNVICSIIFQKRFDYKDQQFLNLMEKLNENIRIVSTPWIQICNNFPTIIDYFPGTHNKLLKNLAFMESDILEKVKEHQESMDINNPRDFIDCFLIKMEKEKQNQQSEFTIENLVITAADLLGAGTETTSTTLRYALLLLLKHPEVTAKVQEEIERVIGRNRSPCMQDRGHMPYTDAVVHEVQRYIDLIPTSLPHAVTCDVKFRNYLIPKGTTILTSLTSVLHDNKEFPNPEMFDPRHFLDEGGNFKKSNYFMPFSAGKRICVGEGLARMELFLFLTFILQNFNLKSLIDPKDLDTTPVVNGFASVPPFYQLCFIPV

Time-dependent inhibition of CYP isoforms (CYP isoforms)	IC50 (CYP2C19; human liver microsomes, read-out: In vitro IC50, direct inhibition, CYP2C19) [µM]	IC50 (CYP2C8) [µM]	Calculated R1 Value, CYP2C8 (CYP2C8)	IC50 (CYP2B6) [µM]	Calculated R1 Value, CYP2B6 (CYP2B6; predicted @ 600 mg BID, R1=1+(Imax,unbound/Ki))	IC50 (CYP2D6; human liver microsomes, read-out: In vitro IC50, direct inhibition, CYP2D6) [µM]	IC50 (CYP1A2; human liver microsomes, read-out: In vitro IC50, direct inhibition, CYP1A2) [µM]	fraction unbound (Plasma protein binding)	Time-dependent inhibition of CYP isoforms (CYP isoforms; listed as rodatristat)	Direct inhibition of CYP2C19 (in words) (CYP2C19)	Ki (CYP2C8; equivalent to IC50/2) [µM]	Calculated R1 Value, CYP2C8 (CYP2C8; listed as rodatristat)	inhibition at 30 µM (CYP2B6; human, pooled human liver microsomes, 30 μM, range given across CYPs 2B6, 2C9 and 3A4/5) [%]	Direct inhibition of CYP2D6 (in words) (CYP2D6)	Direct inhibition of CYP1A2 (in words) (CYP1A2)	In vitro binding to human plasma (Plasma protein binding) [%]	Structure (SMILES)
not time-dependent CYP inhibitors	> 30	2.8	<1.02	13	<1.02	> 30	> 30	0.005									CCOC(=O)[C@@H]1CC2(CCN(c3cc(O[C@H](c4ccc(Cl)cc4-c4ccccc4)C(F)(F)F)nc(N)n3)CC2)CN1 [Rodatristat ethyl, (S)-ethyl 8-(2-amino-6-((R)-1-(5-chloro-[1,1′-biphenyl]-2-yl)-2,2,2-trifluoroethoxy)pyrimidin-4-yl)-2,8-diazaspiro[4.5]decane-3-carboxylate]
		2.8	<1.02	> 30				0.009	not time-dependent CYP inhibitors	did not inhibit	1.4	<1.02	27 to 45	did not inhibit	did not inhibit	99.1	Nc1nc(O[C@H](c2ccc(Cl)cc2-c2ccccc2)C(F)(F)F)cc(N2CCC3(CC2)CN[C@H](C(=O)O)C3)n1 [Rodatristat, (S)-8-(2-amino-6-((R)-1-(5-chloro-[1,1′-biphenyl]-2-yl)-2,2,2-trifluoroeth-oxy)pyrimidin-4-yl)-2,8-diazaspiro[4.5]decane-3-carboxylic acid]

Reference: US20230074252A1, “DOSAGES AND METHODS FOR TREATING PULMONARY ARTERIAL HYPERTENSION WITH RODATRISTAT” (Altavant Sciences GmbH, priority 2020, published 2023)
